# ChEMBL document CHEMBL1155060, “Discovery of brain penetrant, soluble, pyrazole amide EP1 receptor antagonists” (Bioorg Med Chem Lett, 2008)
# Assays:
# [1] = molecular target: T1, Prostaglandin E2 receptor EP1 subtype (Homo sapiens, UniProt P34995); experiment: Displacement of [H3PGE2 from human EP1 receptor expressed in CHOK1 cells; format: cell-based, CHO-K1
# T1 sequence (P34995 whole entry): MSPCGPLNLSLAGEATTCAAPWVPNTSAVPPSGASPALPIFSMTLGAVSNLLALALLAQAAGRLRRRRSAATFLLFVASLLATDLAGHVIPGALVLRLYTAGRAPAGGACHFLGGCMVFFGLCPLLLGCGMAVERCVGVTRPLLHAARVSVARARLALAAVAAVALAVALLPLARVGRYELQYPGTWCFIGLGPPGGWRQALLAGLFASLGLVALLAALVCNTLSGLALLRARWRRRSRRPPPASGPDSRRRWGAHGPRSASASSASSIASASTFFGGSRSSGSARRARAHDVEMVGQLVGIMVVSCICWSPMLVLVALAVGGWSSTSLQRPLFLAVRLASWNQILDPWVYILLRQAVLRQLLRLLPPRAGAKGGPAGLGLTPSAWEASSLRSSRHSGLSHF
# [2] = Solubility in fed state simulated intestinal fluid after 2 hrs; format: physicochemical
# [3] = Solubility in water after 2 hrs; format: physicochemical
# [4] = Solubility in simulated gastric fluid after 2 hrs; format: physicochemical
# [5] = Solubility in fasted state simulated intestinal fluid after 2 hrs; format: physicochemical
# [6] = Solubility in water after 1 hr; format: physicochemical
# [7] = Solubility in fed state simulated intestinal fluid after 1 hr; format: physicochemical
# [8] = molecular target: T1, Prostaglandin E2 receptor EP1 subtype; experiment: Antagonist activity of human PGE2 receptor expressed in CHOK1 cells assessed as inhibition of intracellular calcium mobilisation by FLIPR assay; format: functional, cell-based, CHO-K1
# [9] = Solubility in fasted state simulated intestinal fluid after 1 hr; format: physicochemical
# [10] = Solubility in simulated gastric fluid after 1 hr; format: physicochemical
# Liver microsomes = experiment: Metabolic stability assessed as intrinsic clearance in rat liver microsomes; format: ADME, Microsome
# [11] = Lipophilicity, log D of the compound; format: physicochemical; settings: octanol/water
# [12] = Half life in rat at 1 mg/kg, iv; format: ADME, organism-based; set-up: dose 1 mg/kg, route intravenous; settings: in vivo
# [13] = Ratio of drug level in brain to blood in rat at 3 mg/kg, po after 3 hrs; format: ADME, organism-based; set-up: dose 3 mg/kg, route oral
# [14] = Drug level in rat blood at 10 mg/kg, po after 1 hr; format: ADME, organism-based; set-up: dose 10 mg/kg, route oral; settings: read-out: Drug uptake
# [15] = Blood clearance in rat at 1 mg/kg, iv; format: ADME, organism-based; set-up: dose 1 mg/kg, route intravenous
# [16] = Ratio of drug level in brain to blood in rat at 10 mg/kg, po after 1 hr; format: ADME, organism-based; set-up: dose 10 mg/kg, route oral
# [17] = Drug level in rat blood at 3 mg/kg, po after 3 hrs; format: ADME, organism-based; set-up: dose 3 mg/kg, route oral; settings: read-out: Drug uptake
# [18] = Permeability across MDCK cells; format: ADME, cell-based, Canis lupus familiaris; settings: dog, read-out: permeability
# [19] = Volume of distribution at steady state in rat at 1 mg/kg, iv; format: ADME, organism-based; set-up: dose 1 mg/kg, route intravenous; settings: in vivo, read-out: Vdss
# [20] = Ratio of drug level in brain to blood in rat at 5 mg/kg, po after 3 hrs; format: ADME, organism-based; set-up: dose 5 mg/kg, route oral
# [21] = Solubility in water after 0.5 hrs; format: physicochemical
# [22] = Solubility in simulated gastric fluid after 0.5 hrs; format: physicochemical
# [23] = Solubility in fed state simulated intestinal fluid after 0.5 hrs; format: physicochemical
# [24] = Solubility in fasted state simulated intestinal fluid after 0.5 hrs; format: physicochemical
structure (smiles),measurement,setting,value
Cc1cc(NC(=O)c2ccc(CN3CCCCC3)cc2)nn1Cc1cc(Cl)ccc1OCC(C)C.Cl,IC50,[1],0.0398 µM
same,solubility at 2 h,[2],240 µg/mL
same,solubility at 2 h,[3],> 1000 µg/mL
same,solubility at 2 h,[4],30 µg/mL
same,solubility at 2 h,[5],90 µg/mL
Cc1cc(C(=O)Nc2ccc(CN3CCCCC3)cc2)nn1Cc1cc(Cl)ccc1OCc1ccccc1.Cl,solubility at 1 h,[6],373 µg/mL
same,IC50,[1],0.0126 µM
same,solubility at 1 h,[7],64 µg/mL
Cc1cc(NC(=O)c2ccc3c(c2)CCNCC3)nn1Cc1cc(Cl)ccc1OCC(C)C,IC50,[1],0.0794 µM
Cc1cc(NC(=O)c2ccc3c(c2)CCNC3)nn1Cc1cc(Cl)ccc1OCC(C)C,IC50,[1],0.0398 µM
same,Ki,[8],0.126 µM
Cc1cc(C(=O)Nc2ccc(CN(C)C)cc2)nn1Cc1cc(Cl)ccc1OCc1ccccc1,IC50,[1],0.00794 µM
CNCc1ccc(NC(=O)c2cc(C)n(Cc3cc(Cl)ccc3OCC(C)C)n2)cc1.Cl,solubility at 1 h,[6],474 µg/mL
same,IC50,[1],0.00794 µM
same,Ki,[8],0.0794 µM
same,solubility at 1 h,[9],483 µg/mL
same,solubility at 1 h,[10],364 µg/mL
same,solubility at 1 h,[7],589 µg/mL
Cc1cc(C(=O)Nc2ccc(CO)cc2)nn1Cc1cc(Cl)ccc1OCc1ccccc1,IC50,[1],0.00631 µM
same,Ki,[8],0.0398 µM
Cc1cc(C(=O)Nc2ccccc2)nn1Cc1cc(Cl)ccc1OCc1ccccc1,CL,Liver microsomes,12 mL/min/g
same,logD,[11],> 3.7
Cc1cc(C(=O)O)nn1Cc1cc(Cl)ccc1OCc1ccccc1,logD,[11],1
Cc1cc(NC(=O)c2ccc3c(c2)CCN(C(C)C)C3)nn1Cc1cc(Cl)ccc1OCC(C)C,IC50,[1],0.1 µM
CCNCc1cccc(C(=O)Nc2cc(C)n(Cc3cc(Cl)ccc3OCC(C)C)n2)c1,IC50,[1],0.501 µM
Cc1cc(NC(=O)c2cccc(CN3CCCCC3)c2)nn1Cc1cc(Cl)ccc1OCC(C)C,IC50,[1],0.501 µM
CCNCc1ccc(C(=O)Nc2cc(C)n(Cc3cc(Cl)ccc3OCC(C)C)n2)cc1.Cl,half-life,[12],2.8 h
same,IC50,[1],0.1 µM
same,solubility at 2 h,[2],154 µg/mL
same,solubility at 2 h,[3],690 µg/mL
same,Kp at 3 h,[13],0.9
same,concentration at 1 h,[14],107 nM
same,Ki,[8],0.158 µM
same,solubility at 2 h,[4],62 µg/mL
same,solubility at 2 h,[5],14 µg/mL
same,CL,Liver microsomes,1.8 mL/min/g
same,clearance,[15],29 mL/min/kg
same,Kp at 1 h,[16],0.8
same,concentration at 3 h,[17],114 nM
same,Papp,[18],52.1 ×10⁻⁶ cm/s
same,Vd,[19],6.3 L/kg
Cc1cc(NC(=O)c2ccc(CN3CCCC3)cc2)nn1Cc1cc(Cl)ccc1OCC(C)C.Cl,half-life,[12],1.4 h
same,IC50,[1],0.0501 µM
same,solubility at 2 h,[2],520 µg/mL
same,solubility at 2 h,[3],> 1000 µg/mL
same,Kp at 3 h,[13],2
same,Ki,[8],0.158 µM
same,CL,Liver microsomes,3.2 mL/min/g
same,clearance,[15],46 mL/min/kg
same,Kp at 1 h,[16],1.2
same,Papp,[18],36 ×10⁻⁶ cm/s
same,Vd,[19],4.6 L/kg
Cc1cc(C(=O)Nc2ccc(CN(CCO)CCO)cc2)nn1Cc1cc(Cl)ccc1OCC(C)C,IC50,[1],0.0158 µM
same,Ki,[8],0.0794 µM
Cc1cc(NC(=O)c2ccccc2CO)nn1Cc1cc(Cl)ccc1OCC(C)C,IC50,[1],0.0251 µM
Cc1cc(NC(=O)c2ccc(C(C)NCC(C)C)cc2)nn1Cc1cc(Cl)ccc1OCC(C)C (configuration not stated),IC50,[1],0.0501 µM
CCNCc1ccc(NC(=O)c2cc(C)n(Cc3cc(Cl)ccc3OCC(C)C)n2)cc1.Cl,solubility at 1 h,[6],> 1000 µg/mL
same,IC50,[1],0.00794 µM
same,solubility at 1 h,[9],812 µg/mL
same,solubility at 1 h,[10],905 µg/mL
same,solubility at 1 h,[7],> 1000 µg/mL
Cc1cc(C(=O)Nc2ccc(CN3CCOCC3)cc2)nn1Cc1cc(Cl)ccc1OCC(C)C,IC50,[1],0.00794 µM
Cc1cc(C(=O)Nc2ccc(CN3CCCC3)cc2)nn1Cc1cc(Cl)ccc1OCc1ccccc1,IC50,[1],0.0126 µM
Cc1cc(NC(=O)c2ccc(CO)cc2)nn1Cc1cc(Cl)ccc1OCC(C)C,IC50,[1],0.0126 µM
Cc1cc(C(=O)Nc2ccc(CO)cc2)nn1Cc1cc(Cl)ccc1OCC(C)C,IC50,[1],0.0316 µM
Cc1cc(C(=O)Nc2ccc(CN3CCOCC3)cc2)nn1Cc1cc(Cl)ccc1OCc1ccccc1,IC50,[1],0.01 µM
same,Ki,[8],0.0794 µM
CNCc1ccc(NC(=O)c2cc(C)n(Cc3cc(Cl)ccc3OCc3ccccc3)n2)cc1.Cl,half-life,[12],3 h
same,solubility at 1 h,[6],253 µg/mL
same,IC50,[1],0.0126 µM
same,Ki,[8],0.126 µM
same,solubility at 1 h,[9],57 µg/mL
same,Kp at 3 h,[20],1.4
same,solubility at 1 h,[7],185 µg/mL
same,CL,Liver microsomes,1.8 mL/min/g
same,clearance,[15],46 mL/min/kg
same,Papp,[18],31.8 ×10⁻⁶ cm/s
same,Vd,[19],9.7 L/kg
CCNCc1ccc(NC(=O)c2cc(C)n(Cc3cc(Cl)ccc3OCc3ccccc3)n2)cc1,IC50,[1],0.0126 µM
Cc1cc(NC(=O)c2cccc(CN3CCOCC3)c2)nn1Cc1cc(Cl)ccc1OCC(C)C,IC50,[1],0.251 µM
Cc1cc(C(=O)Nc2ccc(CN3CCCC3)cc2)nn1Cc1cc(Cl)ccc1OCC(C)C,IC50,[1],0.00631 µM
Cc1cc(NC(=O)c2ccc(CN(C)C)cc2)nn1Cc1cc(Cl)ccc1OCC(C)C,IC50,[1],0.1 µM
Cc1cc(NC(=O)c2cccc(CN3CCCC3)c2)nn1Cc1cc(Cl)ccc1OCC(C)C,IC50,[1],0.126 µM
Cc1cc(NC(=O)c2cccc(CN(C)C)c2)nn1Cc1cc(Cl)ccc1OCC(C)C,IC50,[1],0.631 µM
Cc1cc(C(=O)Nc2ccc(CN(C)C)cc2)nn1Cc1cc(Cl)ccc1OCC(C)C,IC50,[1],0.00501 µM
Cc1cc(NC(=O)c2ccc(CN3CCOCC3)cc2)nn1Cc1cc(Cl)ccc1OCC(C)C,IC50,[1],0.0501 µM
Cc1cc(NC(=O)c2ccccc2)nn1Cc1cc(Cl)ccc1OCc1ccccc1,half-life,[12],2.5 h
same,solubility at 0.5 h,[21],2 µg/mL
same,solubility at 0.5 h,[22],2 µg/mL
same,CL,Liver microsomes,7.3 mL/min/g
same,clearance,[15],50 mL/min/kg
same,solubility at 0.5 h,[23],50 µg/mL
same,logD,[11],> 3.7
same,Vd,[19],4.1 L/kg
same,solubility at 0.5 h,[24],38 µg/mL
Cc1cc(C(=O)Nc2ccc(CN3CCCCC3)cc2)nn1Cc1cc(Cl)ccc1OCC(C)C.Cl,solubility at 1 h,[6],811 µg/mL
same,IC50,[1],0.00631 µM
same,solubility at 1 h,[9],164 µg/mL
same,solubility at 1 h,[10],662 µg/mL
same,solubility at 1 h,[7],315 µg/mL
CCN1CCc2ccc(C(=O)Nc3cc(C)n(Cc4cc(Cl)ccc4OCC(C)C)n3)cc2CC1,IC50,[1],0.0501 µM
same,Ki,[8],0.0501 µM
Cc1cc(NC(=O)c2ccc(C3CCCN3)cc2)nn1Cc1cc(Cl)ccc1OCC(C)C (configuration not stated),IC50,[1],0.1 µM
same,Ki,[8],0.1 µM
Cc1cc(NC(=O)c2ccc(C(C)N3CCCC3)cc2)nn1Cc1cc(Cl)ccc1OCC(C)C (configuration not stated),IC50,[1],0.0501 µM
Cc1cc(C(=O)Nc2ccc(CNCCO)cc2)nn1Cc1cc(Cl)ccc1OCC(C)C,IC50,[1],0.0251 µM
same,Ki,[8],0.1 µM
